Measured values reported in patent publication US7226941B2, “Compound for treating angiogenesis” (HIF Bio, Inc., priority 2003, dated 2007).

Key:
Format in all cases: cell-based, human
HIF-2α = assay: Immunoblotting of HIF-2α protein in hypoxic Hep3B cells; details: for inhibition of HIF-2α: hypoxia (1% O2) 18 hours, immunoblot
Description: Hep3B hepatoma cells are cultured in α-modified Eagle's medium supplemented with 10% […] fetal bovine serum, 100 units/ml penicillin, and 100 μg/ml streptomycin in a humidified atmosphere containing 5% CO2 at 37° C. Oxygen tension in the incubator is held at either 140 mm Hg (20% O2, v/v, normoxia) or 7 mm Hg (1% O2, v/v, hypoxia). After 24 hour stabilization under normoxic conditions, cells are incubated under normoxic or hypoxic conditions for 18 hours in the presence or in the absence of compounds of the invention. For the immunoblotting of HIF-1α or HIF-2α in cultured cells, 20 μg of extracted proteins are separated on 6.5% SDS/polyacrylamide gels, and then transferred to an Immobilon-P membrane (Millipore). Immobilized proteins are incubated overnight at 4° C. with rat anti-HIF-1α(Chun et al., J Cell Sci 2001 114:4051-4061) or anti-HIF-2α(Novus Biologicals, Littleton, Colo.), diluted 1:5000 in 5% nonfat milk in TBS/0.1% Tween-20 (TTBS). Horseradish peroxidase-conjugated anti-rat antiserum is used as a secondary antibody and the complexes are visualized using an Enhanced Chemiluminescence Plus Kit (Amersham Pharmacia Biotec).
To induce HIF-1α and HIF-2α proteins, Hep3B cells were incubated in a hypoxic chamber (1% oxygen tension) for 16 hours. […] The amounts of HIF proteins were measured by Western blotting method.

HIF-1α = assay: Immunoblotting of HIF-1α protein in hypoxic Hep3B cells; details: hypoxia (1% O2) 18 hours, immunoblot
Description: Hep3B hepatoma cells are cultured in α-modified Eagle's medium supplemented with 10% heat-activated fetal bovine serum, 100 units/ml penicillin, and 100 μg/ml streptomycin in a humidified atmosphere containing 5% CO2 at 37° C. Oxygen tension in the incubator is held at either 140 mm Hg (20% O2, v/v, normoxia) or 7 mm Hg (1% O2, v/v, hypoxia). After 24 hour stabilization under normoxic conditions, cells are incubated under normoxic or hypoxic conditions for 18 hours in the presence or in the absence of compounds of the invention. For the immunoblotting of HIF-1α or HIF-2α in cultured cells, 20 μg of extracted proteins are separated on 6.5% SDS/polyacrylamide gels, and then transferred to an Immobilon-P membrane (Millipore). Immobilized proteins are incubated overnight at 4° C. with rat anti-HIF-1α(Chun et al., J Cell Sci 2001 114:4051-4061) or anti-HIF-2α(Novus Biologicals, Littleton, Colo.), diluted 1:5000 in 5% nonfat milk in TBS/0.1% Tween-20 (TTBS). Horseradish peroxidase-conjugated anti-rat antiserum is used as a secondary antibody and the complexes are visualized using an Enhanced Chemiluminescence Plus Kit (Amersham Pharmacia Biotec).

HIF = HIF activity assay (EPO enhancer luciferase reporter); details: Hep3B, 16 h at 1% O2 (FIGS. 4a-4i)
Description: The synthetic DNA coding the HIF-binding enhancer region of the EPO gene, 5-[…] ATCT-3 (SEQ. ID NO. 1), was inserted into the pGL3 promoter plasmid (Promega). To assay the HIF activity, Hep3B cells were cotransfected with the luciferase reporter gene and the plasmid cytomegalovirus-β-gal, using the calcium phosphate method. Transfected cells were split into nine aliquots and incubated for 42 h. After stabilizing, the cells were incubated for 16 h at 20% or 1% O2. They were then lysed and assayed for luciferase activity using a Biocounter M1500 luminometer (Lumac). β-gal assays were performed for normalization of transfection.

Hep3B cells [1] = assay: Cell viability by MTT assay; details: 0.5, 1, or 2 μM for 24, 48, or 72 h (FIG. 2)
Description: The percentages of viable cells were measured by MTT assay. […] Bars represent the mean of three separate experiments with the upper 95% confidence interval. *: p<0.05 vs. the control.
Compounds of Formula I or II can be evaluated for efficacy using the methods described above. In addition, compounds of the invention have efficacy in a cell viability assay using human cancer cells. The cells are treated with a compound of Formula I or II (at concentrations ranging from 0.5-2 μM) and buffer. Cellular viability is measured at 24, 48, and 72 hours. Treatment with the compound results in a notable decrease in cell viability.
The percentage of viable cells was measured by MTT assay. Cells were plated in 12 well plates. […] Resulting insoluble formazan was dissolved with 0.04 N HCl in isopropanol. Absorbance of purple color of formazan was measured at 570 nm with a spectrophotometer.

PARP = PARP cleavage by immunoblotting; details: 1, 2 μM for 90 h, Hep3B (FIG. 3b)
Description: (§1) The activity of caspase-3 was represented in nmoles of p-nitroaniline released per min and per ml of cellular extract. Bars represent the mean of three separate experiments with the upper 95% confidence interval. *: p<0.05 vs. the control. […] PARP cleavage was analysed by immunoblotting with a mouse anti-PARP antibody. Proteins were visualized by Enhanced Chemiluminescence Plus. The lane C is the control. […] PARP is essential for DNA-replication in the S-phase and its absence leads to apoptosis.
(§2) Referring to FIG. 3a, the caspase-3 activity increased over time to about 5 times the activity in the control after 72 h. […] Inactivation of PARP leads to cell apoptosis. PARP protein was analyzed using Western blotting with anti-PARP antibody (BIOMOL Research Laboratories, Inc), diluted 1:5000. […] For quantification of apoptosis at single cell level, based on labeling of DNA strand breaks, Terminal deoxynucleotidyl Transferase-mediated dUTP Nick End Labeling (TUNEL) assay was performed according to the manufacturer's protocol (In Situ Cell Death Detection Kit; TMR Red; Roche Diagnostics GmbH, Mannheim, Germany). It is a method for detecting the 3′—OH ends of DNA exposed during the internucleosomal cleavage that occurs during apoptosis. Incorporation of fluorescein-dUTP allows detection by FACS. […]

Hep3B hepatoma cells = assay: Cell cycle analysis by FACS (propidium iodide DNA content)
Description: FIG. 1a is the FACS data to analyze the cell distribution based on DNA content. […] The cell cycle analysis was performed using a Becton Dickinson FACStar flow cytometer. Cells (1-2×10^6) were plated in 10 cm culture dishes at concentrations determined to yield 70-80% confluence within 24 h. Cells were treated with DMSO or YC-1 and incubated for described time. After incubation, both adherent and floating cells were harvested, washed with 3 ml PBS and resuspended with 200 μl PBS, fixed in 75% ethanol for 30 min on ice. After washing with PBS, cells were labeled with propidium iodide (0.05 mg/ml) in the presence of RNase A (0.5 mg/ml), incubated at room temperature in the dark for 30 min. DNA content was then analyzed using FACStar flow cytometer, and then excited with an argon, water-cooled laser emitting at 488 nm. Propidium iodide was detected using a 630±20 nm band pass filter.
The compounds induce cell cycle arrest as shown in Hep3B liver tumor cells. After application of 1 μM into cultures of Hep3B cells, typically in 48 hours, 28% of the cells were in the G0/G1 phases, 15% in the G2/M phases, 57% in the S phase, and a small percentage were characterized as being in the sub-G1 phase. In the control, typically 60% of the cells were in the G0/G1 phases, 16% in the G2/M phases, and […] in the S-phase.

Hep3B cells [2] = assay: TUNEL assay of apoptosis
Description: as §1, §2

**Q.** How did the “inhibition of HIF-2α” value (HIF-2α) turn out when CC(C)n1nc(-c2ccc(CO)o2)c2ccccc21 [{5-[1-(prop-2-yl)-1H-indazol-3-yl]-furan-2-yl}-methanol] was run?
**A.** strong inhibitors

**Q.** What about the “inhibition of HIF-1α” value (HIF-1α) of the same molecule?
**A.** strong inhibitors

**Q.** OCc1ccc(-c2nn(Cc3ccccc3)c3ccccc23)o1 [YC-1, 3-(5′-hydroxymethyl-2′-furyl)-1-benzylindazole] was tested. Which “HIF activity (luciferase reporter)” value (HIF) did it give?
**A.** effectively reduced

**Q.** What about the “expression of HIF-2α protein” value (HIF-2α; 1% oxygen 16 hours, 0.3 to 10 μg/ml, Western blotting (FIGS. 4a-4i)) of the same molecule?
**A.** effectively reduced

**Q.** And the cell viability (Hep3B cells [1])?
**A.** decreased by YC-1, dose-dependently and time-dependently

**Q.** And the “amount of the 89 kDa fragment of PARP” value (PARP)?
**A.** increased when the YC-1 dose was doubled

**Q.** And the “percentage of cells in the S-phase over time (FIG. 1)” value (Hep3B hepatoma cells; Hep3B cells, time after application)?
**A.** steadily increased with time after application

**Q.** What about the “dose dependence of the cell cycle (S-phase) arrest” value (Hep3B hepatoma cells; Hep3B cultures) of the same molecule?
**A.** dose dependent up to 5 μM

**Q.** And the “effect on cell cycle (FIG. 1)” value (Hep3B hepatoma cells; Hep3B hepatoma cells)?
**A.** S-phase arrest

**Q.** And the “percentage of TUNEL-positive cells” value (Hep3B cells [2]; 1, 2 μM for 90 h, Hep3B (FIG. 3c))?
**A.** increased dose-dependently

**Q.** And the “percentage of TUNEL-positive cells with caspase-3 inhibitor” value (Hep3B cells [2]; caspase-3 inhibitor Ac-DEVD-CHO pre-treated 1 h before YC-1)?
**A.** decreased significantly

**Q.** For OCc1ccc(-n2cnc3ccccc32)o1 [{5-[1H-benzimidazol-1-yl]-furan-2-yl}-methanol], which “inhibition of HIF-2α” value (HIF-2α) is on record?
**A.** strong inhibitors

**Q.** And the “inhibition of HIF-1α” value (HIF-1α)?
**A.** strong inhibitors
